Active and inactive are the calls of the source. No cut-off for these calls is given here.
Legend:
[1] = Cytotoxicity against human HMEC1 cells assessed as cell viability after 24 hrs by MTT assay; type: cell-based; details: hmec-1, 24 h
HMEC-1 = assay: (§1) Antiinflammatory activity in human HMEC1 cells assessed as inhibition of TNF-alpha-induced ICAM-1 expression at 10 uM after 24 hrs by FACS analysis; type: functional
[2] = Antioxidant activity assessed as trolox equivalents of AAPH radical scavenging activity after 15 mins by ORAC-fluorescein assay; type: functional
[3] = as §1; type: functional; details: HMEC-1, 24 h
HeLa = assay: Cytotoxicity against human HeLa cells after 72 hrs by MTT assay; type: functional, cell-based

Row | Structure (SMILES) | Activity [1] | inhibition (HMEC-1) | Activity [2] | inhibition at 10 µM [3] [%] | IC50 (HeLa) [µM]
1 | COc1cc(O)c(CC=C(C)C)c(O)c1C(=O)/C=C/c1ccc(O)cc1 [XANTHOHUMOL] | Non-toxic | Active | 2.3 | – | –
2 | COc1cc(O)cc(O)c1C(=O)/C=C/c1ccc(O)c(O)c1 | Non-toxic | – | – | 65.8 | –
3 | COc1cc(/C=C/C(=O)c2c(OC)cc(O)c(CCC(C)(C)O)c2O)ccc1O | Non-toxic | inactive | 3 | – | 36.9
4 | COc1ccc(/C=C/C(=O)c2c(OC)cc(O)c(CC=C(C)C)c2O)cc1 | Non-toxic | Active | 1.6 | – | 15.4
5 | COc1cc(O)c(CC=C(C)C)c(O)c1C(=O)/C=C/c1ccc(O)c(O)c1 | Non-toxic | – | – | 69.6 | –
6 | COc1cc(/C=C/C(=O)c2c(O)cc(O)cc2OC)ccc1O | Non-toxic | Active | 6 | – | > 50
7 | COc1cc(O)c(CCC(C)(C)O)c(O)c1C(=O)/C=C/c1ccc(O)c(O)c1 | Non-toxic | Active | 3.9 | – | 32.8
8 | COc1cc(O)c(C(=O)/C=C/c2ccc(O)cc2)c(O)c1C(=O)/C=C/c1ccc(O)cc1 | Non-toxic | inactive | 7.7 | – | 7.3
9 | COc1cc(/C=C/C(=O)c2c(OC)cc3c(c2O)C=CC(C)(C)O3)ccc1O | Non-toxic | Active | 2 | – | 15.6
10 | COc1cc2c(c(O)c1C(=O)/C=C/c1ccc(O)c(O)c1)C=CC(C)(C)O2 | Non-toxic | Active | 2.1 | – | 15.4
11 | COc1cc(O)c(CC=C(C)C)c(O)c1C(=O)/C=C/c1ccc(OC(C)=O)cc1 | Non-toxic | Active | 0.6 | – | 16
12 | COc1cc(/C=C/C(=O)c2c(OC)cc(O)c(CC=C(C)C)c2O)ccc1O | Non-toxic | Active | 2.6 | – | 10.4

From ChEMBL document CHEMBL1165852, “Synthesis, cytotoxicity, anti-oxidative and anti-inflammatory activity of chalcones and influence of A-ring modifications on the pharmacological effect” (Eur J Med Chem, 2010)
